# Patent US4847272A, “Thianaphthene derivatives” (Sankyo Company Limited, priority 1986, dated 1989)
# Structures can show the parent of a compound that is named as a salt.
# Columns and labels:
# [1] = molecular target: T1, Thromboxane A2 Synthetase (Oryctolagus cuniculus, UniProt G1TAZ9); test: Inhibition of Thromboxane A2 Synthetase, rabbit platelet microsomes; type: biochemical; details: 1-[14C] arachidonic acid 0.1 mM, 1 minute at 22° C., read-out: IC50, concentration required to inhibit the activity of thromboxane synthetase by 50%
# T1 construct: The platelet microsome fraction was separated from rabbit and from human blood; from tissue; host or cells: rabbit blood platelets, microsome fraction
# T1 sequence (G1TAZ9 1-530): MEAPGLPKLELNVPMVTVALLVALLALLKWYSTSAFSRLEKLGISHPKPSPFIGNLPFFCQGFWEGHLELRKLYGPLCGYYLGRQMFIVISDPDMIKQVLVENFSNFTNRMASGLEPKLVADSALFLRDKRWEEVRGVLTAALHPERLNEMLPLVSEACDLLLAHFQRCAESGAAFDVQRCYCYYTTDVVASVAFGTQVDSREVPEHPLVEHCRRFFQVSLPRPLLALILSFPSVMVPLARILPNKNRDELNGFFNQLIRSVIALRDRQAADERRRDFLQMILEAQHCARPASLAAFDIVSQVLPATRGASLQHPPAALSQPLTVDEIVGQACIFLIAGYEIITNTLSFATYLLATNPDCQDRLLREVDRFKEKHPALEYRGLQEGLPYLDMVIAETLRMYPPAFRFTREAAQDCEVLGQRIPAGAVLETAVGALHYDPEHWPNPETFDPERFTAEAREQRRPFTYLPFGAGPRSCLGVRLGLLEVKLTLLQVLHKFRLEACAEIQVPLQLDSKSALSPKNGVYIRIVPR
# Method: (§1) The platelet microsome fraction was separated from rabbit and from human blood by the method of Needleman et al. [Needleman et al., Science, 193, 163 (1976)]. The microsomal TXA2 synthetase activity in the presence of various of the compounds of the invention at various concentrations was assayed by a modification of the method of […] et al. [[…] et al., Prostaglandins, 21, 543 (1981)] by incubating the microsome fractions with labelled 1-[^14 C] arachidonic acid at a concentration of 0.1 mM for 1 minute at 22° C., to a final volume of 0.2 ml. The reaction was terminated by the addition of […] of 0.2M citric acid, and then the mixture was extracted with 1.5 ml of ethyl acetate. […] The developing solvent for the chromatography was a 90:8:1:0.8 by volume mixture of chloroform, methanol, acetic acid and water. […] The results are shown in the following Tables 1 and 2 as the IC50, i.e. the concentration required to inhibit the activity of thromboxane synthetase by 50%. The results using rabbits platelet microsomes are given in Table 1, whilst the results using human platelet microsomes are given in Table 2.
# [2] = molecular target: T2, Thromboxane A2 Synthetase (Homo sapiens, UniProt P24557); test: Inhibition of Thromboxane A2 Synthetase, human platelet microsomes; type: biochemical; details: 1-[14C] arachidonic acid 0.1 mM, 1 minute at 22° C., read-out: IC50, concentration required to inhibit the activity of thromboxane synthetase by 50%
# T2 construct: The platelet microsome fraction was separated from rabbit and from human blood; from tissue; host or cells: human blood platelets, microsome fraction
# T2 sequence (P24557 1-533): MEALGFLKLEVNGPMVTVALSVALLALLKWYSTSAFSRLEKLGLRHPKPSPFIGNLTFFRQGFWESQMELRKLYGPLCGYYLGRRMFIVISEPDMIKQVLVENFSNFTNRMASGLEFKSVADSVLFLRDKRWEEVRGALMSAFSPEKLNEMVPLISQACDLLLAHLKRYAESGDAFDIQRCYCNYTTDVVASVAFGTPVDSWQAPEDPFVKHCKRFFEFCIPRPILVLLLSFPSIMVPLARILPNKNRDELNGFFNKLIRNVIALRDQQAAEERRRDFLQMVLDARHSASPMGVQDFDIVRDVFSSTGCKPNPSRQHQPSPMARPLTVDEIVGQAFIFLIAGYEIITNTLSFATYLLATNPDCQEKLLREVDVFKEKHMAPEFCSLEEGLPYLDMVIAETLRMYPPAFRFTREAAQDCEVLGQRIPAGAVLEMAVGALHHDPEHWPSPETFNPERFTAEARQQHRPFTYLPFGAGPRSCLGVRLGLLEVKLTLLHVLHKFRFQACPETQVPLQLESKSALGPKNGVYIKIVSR
# Method: as §1
# rabbits = test: Antithrombotic Activity in Rabbits (sudden death after i.v. arachidonic acid); type: in vivo, male Japanese white rabbits; details: Oryctolagus cuniculus, 1 h; oral, one hour before 1.3 mg/kg arachidonic acid i.v.; Probit's method
# Method: This test was carried out by a modification of the method of Silver et al. [Science, 183, 1085 (1974)]. The test animals used were male Japanese white rabbits of approximately 3 kg body weight. Each group of rabbits was administered orally the test compound at an appropriate dose and then, one hour after the oral administration, each was given 1.3 mg/kg of arachidonic acid by intravenous injection. The test animals were observed and sudden deaths during the test period were recorded. The ED50 was determined by Probit's method. Unmedicated rabbits were employed as a control, without administering any test compound, but these were all dead within several minutes after the injection of arachidonic acid, as a result of pulmonary thromboembolisms.
IC50 [1] [nM],IC50 [2] [nM],SMILES,ED50 (rabbits) [mg/kg]
13,31,"O=C(O)C1=Cc2sc(Cn3ccnc3)cc2CC1 [Compound B, sodium 4,5-dihydro-2-(1-imidazolyl)methylthianaphthene-6-carboxylate]",0.12
26,30,"O=C(O)C1CCc2cc(Cn3ccnc3)sc2C1 (stereo not drawn) [Compound A, 4,5,6,7-tetrahydro-2-(1-imidazolyl)methylthianaphthene-6-carboxylic acid hydrochloride]",0.27
106,,"Cl.O=C(O)c1ccc(OCCn2ccnc2)cc1 [Dazoxiben, 4-[2-(1-imidazolyl)ethoxy]benzoic acid hydrochloride, reference compound]",1.1
86,,"O=C(O)C1CCc2sc(Cn3ccnc3)cc2C1 (stereo not drawn) [Compound C, 4,5,6,7-tetrahydro-2-(1-imidazolyl)methylthianaphthene-5-carboxylic acid hydrochloride]",
